Results: the NIST ThermoML archive (doi:10.1021/je050034s)

How the values were obtained:
[1] = Molar enthalpy of transition or fusion; conditions: Crystal
[2] = molar heat capacity at saturation pressure

c1ccc(Cc2ccccc2)cc1 [diphenylmethane]
Conditions	Molar enthalpy of transition or fusion [kcal/mol]	Triple point temperature [K]
Crystal	–	298.37
[1]	4.543	–

Conditions	mass density [kg/m3]	vapor or sublimation pressure [kPa]
308.14 K, Liquid, Vibrating tube method	996.7	–
323.14 K, Liquid, Vibrating tube method	985.3	–
329.99 K, Liquid, Inclined piston gauge	–	0.0261
339.99 K, Liquid, Inclined piston gauge	–	0.0523
348.13 K, Liquid, Vibrating tube method	965.6	–
349.98 K, Liquid, Inclined piston gauge	–	0.0995
359.97 K, Liquid, Inclined piston gauge	–	0.1814
369.98 K, Liquid, Inclined piston gauge	–	0.3181
373.12 K, Liquid, Vibrating tube method	945.8	–
379.98 K, Liquid, Inclined piston gauge	–	0.5378
389.97 K, Liquid, Inclined piston gauge	–	0.8793
398.12 K, Liquid, Vibrating tube method	926.1	–
399.97 K, Liquid, Inclined piston gauge	–	1.395
408.21 K, Liquid, Twin ebulliometer	–	2
409.97 K, Liquid, Inclined piston gauge	–	2.155
414.97 K, Liquid, Inclined piston gauge	–	2.651
415.11 K, Liquid, Twin ebulliometer	–	2.666
419.97 K, Liquid, Inclined piston gauge	–	3.243
423.12 K, Liquid, Vibrating tube method	905.7	–
425.34 K, Liquid, Twin ebulliometer	–	4
432.99 K, Liquid, Twin ebulliometer	–	5.333
444.38 K, Liquid, Twin ebulliometer	–	7.999
448.11 K, Liquid, Vibrating tube method	885.4	–
452.93 K, Liquid, Twin ebulliometer	–	10.67
459.84 K, Liquid, Twin ebulliometer	–	13.33
467.03 K, Liquid, Twin ebulliometer	–	16.66
473 K, Liquid, Twin ebulliometer	–	19.93
473.11 K, Liquid, Vibrating tube method	864.3	–
480.86 K, Liquid, Twin ebulliometer	–	25.02
488.78 K, Liquid, Twin ebulliometer	–	31.17
496.76 K, Liquid, Twin ebulliometer	–	38.56
498.11 K, Liquid, Vibrating tube method	842.6	–
504.79 K, Liquid, Twin ebulliometer	–	47.37
512.88 K, Liquid, Twin ebulliometer	–	57.81
521.02 K, Liquid, Twin ebulliometer	–	70.11
523.11 K, Liquid, Vibrating tube method	819.2	–
529.22 K, Liquid, Twin ebulliometer	–	84.53
537.47 K, Liquid, Twin ebulliometer	–	101.31
545.78 K, Liquid, Twin ebulliometer	–	120.78
554.14 K, Liquid, Twin ebulliometer	–	143.23
562.56 K, Liquid, Twin ebulliometer	–	169
571.03 K, Liquid, Twin ebulliometer	–	198.46
579.55 K, Liquid, Twin ebulliometer	–	231.99
588.13 K, Liquid, Twin ebulliometer	–	269.98
743.8 K, Gas, DSC	104.3	–
754.8 K, Gas, DSC	148.4	–
760.6 K, Liquid, DSC	417.7	–
767.1 K, Liquid, DSC	417.5	–
769.8 K, Liquid, DSC	397.2	–
770 K, Gas, DSC	191.2	–
775.7 K, Gas, DSC	220.3	–
776.5 K, Liquid, DSC	333.5	–
777 K, Liquid, DSC	304.2	–

Conditions	Critical temperature [K]
Liquid, DTA	778

molar heat capacity [J/K/mol], [2]
Conditions	Crystal	Liquid
5 K, Vacuum adiabatic calorimetry	0.38	–
5.364 K, Vacuum adiabatic calorimetry	0.47	–
6.296 K, Vacuum adiabatic calorimetry	0.76	–
7.218 K, Vacuum adiabatic calorimetry	1.16	–
8.187 K, Vacuum adiabatic calorimetry	1.71	–
9.195 K, Vacuum adiabatic calorimetry	2.42	–
10 K, Vacuum adiabatic calorimetry	3.12	–
10.21 K, Vacuum adiabatic calorimetry	3.31	–
11.33 K, Vacuum adiabatic calorimetry	4.39	–
12.6 K, Vacuum adiabatic calorimetry	5.74	–
13.99 K, Vacuum adiabatic calorimetry	7.45	–
15.53 K, Vacuum adiabatic calorimetry	9.437	–
17.24 K, Vacuum adiabatic calorimetry	11.84	–
19.13 K, Vacuum adiabatic calorimetry	14.59	–
20 K, Vacuum adiabatic calorimetry	15.87	–
21.21 K, Vacuum adiabatic calorimetry	17.66	–
23.51 K, Vacuum adiabatic calorimetry	21.15	–
26.07 K, Vacuum adiabatic calorimetry	24.97	–
28.93 K, Vacuum adiabatic calorimetry	29.09	–
30 K, Vacuum adiabatic calorimetry	30.59	–
32.11 K, Vacuum adiabatic calorimetry	33.47	–
35.66 K, Vacuum adiabatic calorimetry	37.99	–
39.62 K, Vacuum adiabatic calorimetry	42.58	–
40 K, Vacuum adiabatic calorimetry	43	–
44.02 K, Vacuum adiabatic calorimetry	47.26	–
48.94 K, Vacuum adiabatic calorimetry	51.94	–
50 K, Vacuum adiabatic calorimetry	52.92	–
50.87 K, Vacuum adiabatic calorimetry	53.74	–
52.95 K, Vacuum adiabatic calorimetry	55.44	–
54.43 K, Vacuum adiabatic calorimetry	56.74	–
55.01 K, Vacuum adiabatic calorimetry	57.11	–
57.89 K, Vacuum adiabatic calorimetry	59.58	–
59.91 K, Vacuum adiabatic calorimetry	61.04	–
60 K, Vacuum adiabatic calorimetry	61.11	–
63.59 K, Vacuum adiabatic calorimetry	63.66	–
65.43 K, Vacuum adiabatic calorimetry	65.06	–
69.82 K, Vacuum adiabatic calorimetry	68.05	–
70 K, Vacuum adiabatic calorimetry	68.16	–
76.62 K, Vacuum adiabatic calorimetry	72.36	–
78.19 K, Vacuum adiabatic calorimetry	73.39	–
80 K, Vacuum adiabatic calorimetry	74.47	–
81.13 K, Vacuum adiabatic calorimetry	75.18	–
84.19 K, Vacuum adiabatic calorimetry	76.96	–
85.52 K, Vacuum adiabatic calorimetry	77.76	–
88.47 K, Vacuum adiabatic calorimetry	79.51	–
90 K, Vacuum adiabatic calorimetry	80.38	–
96.79 K, Vacuum adiabatic calorimetry	84.28	–
100 K, Vacuum adiabatic calorimetry	86.12	–
105.91 K, Vacuum adiabatic calorimetry	89.5	–
115.55 K, Vacuum adiabatic calorimetry	94.96	–
120 K, Vacuum adiabatic calorimetry	97.5	–
125.31 K, Vacuum adiabatic calorimetry	100.54	–
135.12 K, Vacuum adiabatic calorimetry	106.25	–
140 K, Vacuum adiabatic calorimetry	109.13	–
145.06 K, Vacuum adiabatic calorimetry	112.15	–
155.05 K, Vacuum adiabatic calorimetry	118.34	–
160 K, Vacuum adiabatic calorimetry	121.47	–
165.03 K, Vacuum adiabatic calorimetry	124.68	–
175.01 K, Vacuum adiabatic calorimetry	131.04	–
180 K, Vacuum adiabatic calorimetry	134.55	–
185 K, Vacuum adiabatic calorimetry	138.14	–
195.05 K, Vacuum adiabatic calorimetry	145.11	–
200 K, Vacuum adiabatic calorimetry	148.68	–
205.14 K, Vacuum adiabatic calorimetry	152.48	–
215.25 K, Vacuum adiabatic calorimetry	160.17	–
220 K, Vacuum adiabatic calorimetry	163.86	–
225.34 K, Vacuum adiabatic calorimetry	168.15	–
235.38 K, Vacuum adiabatic calorimetry	176.42	–
240 K, Vacuum adiabatic calorimetry	180.3	–
245.37 K, Vacuum adiabatic calorimetry	185.01	–
246.51 K, Vacuum adiabatic calorimetry	185.99	–
255.32 K, Vacuum adiabatic calorimetry	193.89	–
257.33 K, Vacuum adiabatic calorimetry	195.76	–
260 K, Vacuum adiabatic calorimetry	198.12	–
268.6 K, Vacuum adiabatic calorimetry	206.43	–
279.29 K, Vacuum adiabatic calorimetry	217.16	–
280 K, Vacuum adiabatic calorimetry	217.44	–
289.28 K, Vacuum adiabatic calorimetry	229.55	–
289.37 K, Vacuum adiabatic calorimetry	229.9	–
298.15 K, Vacuum adiabatic calorimetry	236.26	267.36
298.37 K, Vacuum adiabatic calorimetry	236.5	267.48
300 K, Vacuum adiabatic calorimetry	–	268.32
303.38 K, Vacuum adiabatic calorimetry	–	270.07
305.34 K, Vacuum adiabatic calorimetry	–	270.99
305.59 K, Vacuum adiabatic calorimetry	–	271.14
313.82 K, Vacuum adiabatic calorimetry	–	275.26
320 K, Vacuum adiabatic calorimetry	–	278.43
325.59 K, Vacuum adiabatic calorimetry	–	281.23
339.57 K, Vacuum adiabatic calorimetry	–	288.4
340 K, Vacuum adiabatic calorimetry	–	288.62
356.66 K, Vacuum adiabatic calorimetry	–	297.31
360 K, Vacuum adiabatic calorimetry	–	299.1
373.63 K, Vacuum adiabatic calorimetry	–	306.34
380 K, Vacuum adiabatic calorimetry	–	309.56
390.49 K, Vacuum adiabatic calorimetry	–	314.87
400 K, Vacuum adiabatic calorimetry	–	319.92
407.29 K, Vacuum adiabatic calorimetry	–	323.8
420 K, Vacuum adiabatic calorimetry	–	330.39
424.08 K, Vacuum adiabatic calorimetry	–	332.47
438.41 K, Vacuum adiabatic calorimetry	–	339.81
440 K, Vacuum adiabatic calorimetry	–	340.5
460 K, Vacuum adiabatic calorimetry	–	349.5
480 K, Small sample (50 mg) DSC	–	358.67
500 K, Small sample (50 mg) DSC	–	367.6
520 K, Small sample (50 mg) DSC	–	376.3
540 K, Small sample (50 mg) DSC	–	384.6
560 K, Small sample (50 mg) DSC	–	392.7
580 K, Small sample (50 mg) DSC	–	400.5
600 K, Small sample (50 mg) DSC	–	407.9
620 K, Small sample (50 mg) DSC	–	415.1
640 K, Small sample (50 mg) DSC	–	422.3
660 K, Small sample (50 mg) DSC	–	429.6
680 K, Small sample (50 mg) DSC	–	437.4
700 K, Small sample (50 mg) DSC	–	446.9
